Test results as given in patent US5576323A, “Excitatory amino acid receptor antagonists” (Eli Lilly and Company, priority 1994, dated 1996).

Test system: metabotropic glutamate receptors
Assay: displacement of 1S,3R-ACPD-sensitive [3H]glutamate binding to rat forebrain crude membranes
Settings: 100 μM, mixture of enantiomers unless otherwise noted
Protocol: The binding of [^3 H]glutamate was conducted with crude membranes of rat forebrain as described by Schoepp and True. Schoepp and True, Neuroscience Lett., 145, 100-104 (1992), True and Schoepp, Society for Neuroscience Abstracts, 19, 470 (1993) and Wright, McDonald and Schoepp, J. Neurochem. 63: 938-945, 1994.

Percent displacement of L-[3H]Glu [%] | SMILES
88.0 | N[C@@H](CC(Oc1ccccc1)C(=O)O)C(=O)O (some centres unmarked) [Compound 1, 4-Phenoxyglutamic Acid]
77.1 | NC(CC(Sc1ccccc1)C(=O)O)C(=O)O (centres unmarked) [Compound 2, 4-Benzenethioglutamic Acid]
82.4 | Cc1ccc(OC(C[C@H](N)C(=O)O)C(=O)O)cc1 (some centres unmarked) [Compound 3, 4-(4-Methylphenoxy)glutamic Acid]
66.5 | Cc1ccccc1OC(C[C@H](N)C(=O)O)C(=O)O (some centres unmarked) [Compound 4, 4-(2-Methylphenoxy)glutamic acid]
82.3 | COc1ccc(OC(C[C@H](N)C(=O)O)C(=O)O)cc1 (some centres unmarked) [Compound 5, 4-(4 Methoxyphenoxy)glutamic Acid]
53.9 | CC(C)c1ccc(OC(C[C@H](N)C(=O)O)C(=O)O)cc1 (some centres unmarked) [Compound 6, 4-(4-(Isopropyl)phenoxy)glutamic Acid]
72.0 | N[C@@H](CC(Oc1ccc(C2CCCC2)cc1)C(=O)O)C(=O)O (some centres unmarked) [Compound 7, 4-(4-Cyclopentylphenoxy)glutamic Acid]
52.3 | CC(C)(C)CC(C)(C)c1ccc(OC(C[C@H](N)C(=O)O)C(=O)O)cc1 (some centres unmarked) [Compound 8, 4-(4-(1,1,3,3-Tetramethylbutyl)phenoxy)glutamic Acid]
85.8 | CC(=O)c1ccc(OC(CC(N)C(=O)O)C(=O)O)cc1 (centres unmarked) [Compound 9]
77.9 | N[C@@H](CC(Oc1ccc(C(F)(F)F)cc1)C(=O)O)C(=O)O (some centres unmarked) [Compound 10, 4-(4-Trifluoromethylphenoxy)glutamic Acid]
86.7 | N[C@@H](CC(Oc1ccc(-c2ccccc2)cc1)C(=O)O)C(=O)O (some centres unmarked) [Compound 12, 4-(4-Phenylphenoxy)glutamic Acid]
81.6 | N[C@@H](CC(Oc1cccc(-c2ccccc2)c1)C(=O)O)C(=O)O (some centres unmarked) [Compound 13, 4-(3-Phenylphenoxy)glutamic Acid]
93.8 | N[C@@H](CC(Oc1ccc(Cc2ccccc2)cc1)C(=O)O)C(=O)O (some centres unmarked) [Compound 14, 4-(4-Benzylphenoxy)glutamic Acid]
85.9 | N[C@@H](CC(Oc1ccccc1Cc1ccccc1)C(=O)O)C(=O)O (some centres unmarked) [Compound 15, 4-(2-Benzylphenoxy)glutamic Acid]
76.9 | N[C@@H](CC(Oc1ccc(CCCCCCc2ccccc2)cc1)C(=O)O)C(=O)O (some centres unmarked) [Compound 16, 4-(4-(6-Phenylhexyl)phenoxy)glutamic Acid]
75.9 | N[C@@H](CC(Oc1ccc(CC=Cc2ccccc2)cc1)C(=O)O)C(=O)O (some centres unmarked) [Compound 17, 4-(4-(3-Phenylprop-2-enyl)phenoxy)glutamic Acid]
92.1 | N[C@@H](CC(Oc1ccc(C=Cc2ccc([N+](=O)[O-])cc2)cc1)C(=O)O)C(=O)O (some centres unmarked) [Compound 18, 4-(4-(2-(4-Nitrophenyl)ethenyl)phenoxy)glutamic Acid]
84.6 | N[C@@H](CC(Oc1ccc(Oc2ccccc2)cc1)C(=O)O)C(=O)O (some centres unmarked) [Compound 19, 4-(4-Phenoxyphenoxy)glutamic Acid]
67.8 | N[C@@H](CC(Oc1ccc(OCc2ccccc2)cc1)C(=O)O)C(=O)O (some centres unmarked) [Compound 20, 4-(4-Benzyloxyphenoxy)glutamic Acid]
95.9 | N[C@@H](CC(Oc1ccc2ccccc2c1)C(=O)O)C(=O)O (some centres unmarked) [Compound 21, 4-(2-Naphthyloxy)glutamic Acid]
93.9 | N[C@@H](CC(Oc1ccc2cc(Br)ccc2c1)C(=O)O)C(=O)O (some centres unmarked) [Compound 22, 4-(6-Bromo-2-naphthyloxy)glutamic Acid]
99.5 | N[C@@H](CC(Oc1ccc2cc(Br)ccc2c1Br)C(=O)O)C(=O)O (some centres unmarked) [Compound 23, 4-(1,6-Dibromo-2-naphthyloxy)glutamic Acid]

Percent displacement of L-[3H]Glu [%] | SMILES
100.6 | NC(CC(Sc1ccc2ccccc2c1)C(=O)O)C(=O)O (centres unmarked) [Compound 24, 4-(2-Naphthalenethio)glutamic Acid]
98.5 | N[C@@H](CC(Oc1cccc2ccccc12)C(=O)O)C(=O)O (some centres unmarked) [Compound 25, 4-(1-Naphthyloxy)glutamic Acid]
82.1 | N[C@@H](CC(Oc1cccc2c1CCCC2)C(=O)O)C(=O)O (some centres unmarked) [Compound 26, 4-(5,6,7,8-Tetrahydro-1-naphthyloxy)glutamic Acid]
66.5 | CC1(C)CCC(C)(C)c2cc(OC(C[C@H](N)C(=O)O)C(=O)O)ccc21 (some centres unmarked) [Compound 27, 4-(6,7-Dihydro-5,5,8,8-tetramethyl-2-naphthyloxy)glutamic Acid]
97.8 | N[C@@H](CC(Oc1ccc2c(c1)CCC2)C(=O)O)C(=O)O (some centres unmarked) [Compound 28, 4-(5-Indanyloxy)glutamic Acid]
89.0 | N[C@@H](CC(Oc1ccc2c(c1)OCO2)C(=O)O)C(=O)O (some centres unmarked) [Compound 29, 4-(3,4-Methylenedioxyphenoxy)glutamic Acid]
93.7 | N[C@@H](CC(Oc1ccc2c(c1)Cc1ccccc1-2)C(=O)O)C(=O)O (some centres unmarked) [Compound 30, 4-(2-Fluorenoxy)glutamic Acid]
99.4 | N[C@@H](CC(Oc1ccc2oc3ccccc3c2c1)C(=O)O)C(=O)O (some centres unmarked) [Compound 31, 4-(2-Dibenzofuranoxy)glutamic Acid]
92.6 | NC(CC(Oc1ccc2oc3c(c2c1)CCCC3)C(=O)O)C(=O)O (centres unmarked) [Compound 32, 4-(5,6,7,8-Tetrahydro-2-dibenzofuranoxy)glutamic Acid]
90.1 | Cc1cc2cc(OC(C[C@H](N)C(=O)O)C(=O)O)ccc2o1 (some centres unmarked) [Compound 33, 4-(2-Methyl-5-benzofuranyloxy)glutamic Acid]
95.3 | N[C@@H](CC(Oc1ccc2sccc2c1)C(=O)O)C(=O)O (some centres unmarked) [Compound 34, 4-(5-Benzothiophenyloxy)glutamic Acid]
92.4 | NC(CC(Oc1ccc(C(c2ccc(Cl)cc2)c2ccccn2)cc1)C(=O)O)C(=O)O (centres unmarked) [Compound 35]
81.3 | NC(CC(Sc1nncn1Cc1ccccc1)C(=O)O)C(=O)O (centres unmarked) [Compound 36, 4-(4-Benzyl-1,2,4-triazole-3-thio)glutamic Acid]
89.9 | N[C@@H](CC(Sc1n[nH]c(C=Cc2ccccc2Cl)n1)C(=O)O)C(=O)O (some centres unmarked) [Compound 38, 4-(5-((2-Chlorophenyl)ethenyl)-1,2,4-triazole-3-thio)glutamic Acid]
103.2 | Cc1ccc(O[C@@H](C[C@H](N)C(=O)O)C(=O)O)cc1 [Compound 44, (2S,4S)-4-(4-Methylphenoxy)glutamic Acid]
101.5 | N[C@@H](C[C@H](Oc1ccc2ccccc2c1)C(=O)O)C(=O)O [Compound 45, (2S,4S)-4-(2-Naphthyloxy)glutamic Acid]
85.5 | N[C@@H](C[C@H](Oc1ccc(-c2ccccc2)cc1)C(=O)O)C(=O)O [Compound 46, (2S,4S)-4-(4-Phenylphenoxy)glutamic Acid]
107.1 | N[C@@H](C[C@H](Oc1ccc2oc3ccccc3c2c1)C(=O)O)C(=O)O [Compound 47, (2S,4S)-4-(2-Dibenzofuranoxy)glutamic Acid]
91.9 | NC(CC(Oc1ccc(/C=C/c2ccccc2)cc1)C(=O)O)C(=O)O (centres unmarked) [Compound 48, 4-(4-(4-phenylethenyl)phenoxy)glutamic acid]
81.5 | N[C@@H](CC(Oc1ccc(CCc2ccccc2)cc1)C(=O)O)C(=O)O (some centres unmarked) [Compound 49, 4-(4-(2-phenylethyl)phenoxy)glutamic acid]
75.9 | NC(CC(Oc1ccc(CCCc2ccccc2)cc1)C(=O)O)C(=O)O (centres unmarked) [Compound 50]
81.0 | N[C@@H](CC(Oc1ccc(CCCCc2ccccc2)cc1)C(=O)O)C(=O)O (some centres unmarked) [Compound 51, 4-(4-(4-phenylbutyl)phenoxy)glutamic acid]
